Test results published in patent publication US9371280B2, “Substituted pyrrolidine-2-carboxamides” (Hoffmann-La Roche Inc., priority 2012, dated 2016).
Where a name gives a salt, the structure may show the parent alone.
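Also: FRET read-out from Eu-labelled anti-GST antibody to streptavidin-APC, with 90 nM N-terminally biotinylated p53 peptide and 160 ng/ml GST-MDM2 in Tris-borate saline containing 1 mM DTT, 384-well format.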

These compounds were tested against interaction between p53 and MDM2 proteins (recombinant GST-tagged MDM2) (Homo sapiens, UniProt Q00987) (assay: HTRF assay of inhibition of the p53-MDM2 interaction (GST-MDM2 / biotinylated p53 peptide)). Conditions: HTRF, 0.02% BSA, 37° C. 1 h.
Sequence of interaction between p53 and MDM2 proteins (recombinant GST-tagged MDM2) (Q00987 whole entry): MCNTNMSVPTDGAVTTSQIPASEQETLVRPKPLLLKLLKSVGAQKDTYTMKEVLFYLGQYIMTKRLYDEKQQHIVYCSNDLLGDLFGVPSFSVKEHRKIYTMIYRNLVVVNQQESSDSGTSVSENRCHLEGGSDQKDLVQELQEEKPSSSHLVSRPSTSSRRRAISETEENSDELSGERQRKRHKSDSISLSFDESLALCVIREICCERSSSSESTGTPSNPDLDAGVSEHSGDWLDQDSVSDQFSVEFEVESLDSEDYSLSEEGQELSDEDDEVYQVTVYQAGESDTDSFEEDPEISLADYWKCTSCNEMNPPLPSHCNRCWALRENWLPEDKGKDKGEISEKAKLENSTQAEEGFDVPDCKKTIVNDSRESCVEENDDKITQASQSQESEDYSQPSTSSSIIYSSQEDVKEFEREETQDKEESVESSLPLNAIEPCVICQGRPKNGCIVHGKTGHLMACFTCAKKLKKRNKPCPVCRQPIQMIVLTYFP
Format: binding
Procedure: The ability of the compounds to inhibit the interaction between p53 and MDM2 proteins was measured by an HTRF (homogeneous time-resolved fluorescence) assay in which recombinant GST-tagged MDM2 binds to a peptide that resembles the MDM2-interacting region of p53 (Lane et al.). Binding of GST-MDM2 protein and p53-peptide (biotinylated on its N-terminal end) is registered by the FRET (fluorescence resonance energy transfer) between Europium (Eu)-labeled anti-GST antibody and streptavidin-conjugated Allophycocyanin (APC).
Test is performed in black flat-bottom 384-well plates (Costar) in a total volume of 40 uL containing: 90 nM biotinylate peptide, 160 ng/ml GST-MDM2, 20 nM streptavidin-APC (PerkinElmerWallac), 2 nM Eu-labeled anti-GST-antibody (PerkinElmerWallac), 0.02% bovine serum albumin (BSA), 1 mM dithiothreitol (DTT) and 20 mM Tris-borate saline (TBS) buffer as follows: Add 10 uL of GST-MDM2 (640 ng/ml working solution) in reaction buffer to each well. […] Incubate at 37° C. for 1 h.
`COc1cc(C(=O)NC(C)CO)ccc1NC(=O)[C@@H]1N[C@@H](CC(C)(C)C)[C@](C#N)(c2ccc(Cl)cc2F)[C@H]1c1cccc(Cl)c1F` (mixture of isomers) [Example 14, Rac-(2R,3S,4R,5S)-4-(4-Chloro-2-fluoro-phenyl)-3-(3-chloro-2-fluoro-phenyl)-4-cyano-5-(2,2-dimethyl-propyl)-pyrrolidine-2-carboxylic acid [4-(2-hydroxy-1-methyl-ethylcarbamoyl)-2-methoxy-phenyl]-amide] gave an IC50 of 0.00675 µM. For `COc1cc(C(=O)OCCO)ccc1NC(=O)[C@@H]1N[C@@H](CC(C)(C)C)[C@](C#N)(c2ccc(Cl)cc2F)[C@H]1c1cccc(Cl)c1F` [Example 1, 2-Hydroxyethyl 4-((2R,3S,4R,5S)-3-(3-chloro-2-fluorophenyl)-4-(4-chloro-2-fluorophenyl)-4-cyano-5-neopentylpyrrolidine-2-carboxamido)-3-methoxybenzoate], the IC50 was 0.0111 µM. With `COc1cc(C(=O)OCCOC(=O)[C@H](C)N)ccc1NC(=O)[C@@H]1N[C@@H](CC(C)(C)C)[C@](C#N)(c2ccc(Cl)cc2F)[C@H]1c1cccc(Cl)c1F` [Example 4, 4-{[(2R,3S,4R,5S)-3-(3-Chloro-2-fluoro-phenyl)-4-(4-chloro-2-fluoro-phenyl)-4-cyano-5-(2,2-dimethyl-propyl)-pyrrolidine-2-carbonyl]-amino}-3-methoxy-benzoic acid 2-((S)-2-amino-propionyloxy)-ethyl ester] the IC50 was 0.00984 µM. `COc1cc(C(=O)OCCOC(=O)[C@@H](C)N)ccc1NC(=O)[C@@H]1N[C@@H](CC(C)(C)C)[C@](C#N)(c2ccc(Cl)cc2F)[C@H]1c1cccc(Cl)c1F` [Example 6, 4-{[(2R,3S,4R,5S)-3-(3-Chloro-2-fluoro-phenyl)-4-(4-chloro-2-fluoro-phenyl)-4-cyano-5-(2,2-dimethyl-propyl)-pyrrolidine-2-carbonyl]-amino}-3-methoxy-benzoic acid 2-((R)-2-amino-propionyloxy)-ethyl ester] gave an IC50 of 0.0371 µM. `COc1cc(C(=O)OCCN(C)C)ccc1NC(=O)[C@@H]1N[C@@H](CC(C)(C)C)[C@](C#N)(c2ccc(Cl)cc2F)[C@H]1c1cccc(Cl)c1F` [Example 7, 2-(Dimethylamino)ethyl 4-((2R,3S,4R,5S)-3-(3-chloro-2-fluorophenyl)-4-(4-chloro-2-fluorophenyl)-4-cyano-5-neopentylpyrrolidine-2-carboxamido)-3-methoxybenzoate] showed an IC50 of 0.0146 µM. `COc1cc(C(=O)OCC2COC(C)(C)O2)ccc1NC(=O)[C@@H]1N[C@@H](CC(C)(C)C)[C@](C#N)(c2ccc(Cl)cc2F)[C@H]1c1cccc(Cl)c1F` (stereo partly drawn) [Example 8, (2,2-Dimethyl-1,3-dioxolan-4-yl)methyl 4-((2R,3S,4R,5S)-3-(3-chloro-2-fluorophenyl)-4-(4-chloro-2-fluorophenyl)-4-cyano-5-neopentylpyrrolidine-2-carboxamido)-3-methoxybenzoate] was tested, and the IC50 was 0.00957 µM. `COc1cc(C(=O)OCC(CO)CO)ccc1NC(=O)[C@@H]1N[C@@H](CC(C)(C)C)[C@](C#N)(c2ccc(Cl)cc2F)[C@H]1c1cccc(Cl)c1F` [Example 9, 3-Hydroxy-2-(hydroxymethyl)propyl 4-((2R,3S,4R,5S)-3-(3-chloro-2-fluorophenyl)-4-(4-chloro-2-fluorophenyl)-4-cyano-5-neopentylpyrrolidine-2-carboxamido)-3-methoxybenzoate] showed an IC50 of 0.012 µM. `COCCOC(=O)c1ccc(NC(=O)[C@@H]2N[C@@H](CC(C)(C)C)[C@](C#N)(c3ccc(Cl)cc3F)[C@H]2c2cccc(Cl)c2F)c(OC)c1` [Example 10, 2-Methoxyethyl 4-((2R,3S,4R,5S)-3-(3-chloro-2-fluorophenyl)-4-(4-chloro-2-fluorophenyl)-4-cyano-5-neopentylpyrrolidine-2-carboxamido)-3-methoxybenzoate] was tested, and the IC50 was 0.0107 µM. Work on `COc1cc(C(=O)OCCI)ccc1NC(=O)[C@@H]1N[C@@H](CC(C)(C)C)[C@](C#N)(c2ccc(Cl)cc2F)[C@H]1c1cccc(Cl)c1F` [Example 11, 2-Iodoethyl 4-((2R,3S,4R,5S)-3-(3-chloro-2-fluorophenyl)-4-(4-chloro-2-fluorophenyl)-4-cyano-5-neopentylpyrrolidine-2-carboxamido)-3-methoxybenzoate] yielded an IC50 of 0.0117 µM. `COc1cc(C(=O)OCCOP(=O)(OC(C)(C)C)OC(C)(C)C)ccc1NC(=O)[C@@H]1N[C@@H](CC(C)(C)C)[C@](C#N)(c2ccc(Cl)cc2F)[C@H]1c1cccc(Cl)c1F` [Example 12, 2-(Di-tert-butoxyphosphoryloxy)ethyl 4-((2R,3S,4R,5S)-3-(3-chloro-2-fluorophenyl)-4-(4-chloro-2-fluorophenyl)-4-cyano-5-neopentylpyrrolidine-2-carboxamido)-3-methoxybenzoate] gave an IC50 of 0.00959 µM. `COc1cc(C(=O)OCCOP(=O)(O)O)ccc1NC(=O)[C@@H]1N[C@@H](CC(C)(C)C)[C@](C#N)(c2ccc(Cl)cc2F)[C@H]1c1cccc(Cl)c1F` [Example 13, 2-(Phosphonooxy)ethyl 4-((2R,3S,4R,5S)-3-(3-chloro-2-fluorophenyl)-4-(4-chloro-2-fluorophenyl)-4-cyano-5-neopentylpyrrolidine-2-carboxamido)-3-methoxybenzoate, trifluoroacetate salt] gave an IC50 of 0.00454 µM. With `CCN(CC)CCOC(=O)c1ccc(NC(=O)[C@@H]2N[C@@H](CC(C)(C)C)[C@](C#N)(c3ccc(Cl)cc3F)[C@H]2c2cccc(Cl)c2F)c(OC)c1` [Example 16, 4-{[(2R,3S,4R,5S)-4-(4-Chloro-2-fluoro-phenyl)-3-(3-chloro-2-fluoro-phenyl)-4-cyano-5-(2,2-dimethyl-propyl)-pyrrolidine-2-carbonyl]-amino}-3-methoxy-benzoic acid 2-diethylamino-ethyl ester] the IC50 was 0.0501 µM. `COc1cc(C(=O)OC2CCN(C)CC2)ccc1NC(=O)[C@@H]1N[C@@H](CC(C)(C)C)[C@](C#N)(c2ccc(Cl)cc2F)[C@H]1c1cccc(Cl)c1F` [Example 17, 4-{[(2R,3S,4R,5S)-4-(4-Chloro-2-fluoro-phenyl)-3-(3-chloro-2-fluoro-phenyl)-4-cyano-5-(2,2-dimethyl-propyl)-pyrrolidine-2-carbonyl]-amino}-3-methoxy-benzoic acid 1-methyl-piperidin-4-yl ester] was tested, and the IC50 was 0.0115 µM. In the case of `COc1cc(C(=O)OCC2CCN(C)CC2)ccc1NC(=O)[C@@H]1N[C@@H](CC(C)(C)C)[C@](C#N)(c2ccc(Cl)cc2F)[C@H]1c1cccc(Cl)c1F` [Example 18, 4-{[(2R,3S,4R,5S)-4-(4-Chloro-2-fluoro-phenyl)-3-(3-chloro-2-fluoro-phenyl)-4-cyano-5-(2,2-dimethyl-propyl)-pyrrolidine-2-carbonyl]-amino}-3-methoxy-benzoic acid 1-methyl-piperidin-4-ylmethyl ester], the IC50 is reported as 0.024 µM. For `COc1cc(C(=O)OCCN2CCN(C)CC2)ccc1NC(=O)[C@@H]1N[C@@H](CC(C)(C)C)[C@](C#N)(c2ccc(Cl)cc2F)[C@H]1c1cccc(Cl)c1F` [Example 19, 4-{[(2R,3S,4R,5S)-4-(4-Chloro-2-fluoro-phenyl)-3-(3-chloro-2-fluoro-phenyl)-4-cyano-5-(2,2-dimethyl-propyl)-pyrrolidine-2-carbonyl]-amino}-3-methoxy-benzoic acid 2-(4-methyl-piperazin-1-yl)-ethyl ester], the IC50 was 0.00558 µM. For `COc1cc(C(=O)On2nnc3cccnc32)ccc1NC(=O)[C@@H]1N[C@@H](CC(C)(C)C)[C@](C#N)(c2ccc(Cl)cc2F)[C@H]1c1cccc(Cl)c1F` [Example 20, 4-{[(2R,3S,4R,5S)-4-(4-Chloro-2-fluoro-phenyl)-3-(3-chloro-2-fluoro-phenyl)-4-cyano-5-(2,2-dimethyl-propyl)-pyrrolidine-2-carbonyl]-amino}-3-methoxy-benzoic acid [1,2,3]triazolo[4,5-b]pyridin-3-yl ester], the IC50 was 0.00654 µM. Work on `COc1cc(C(=O)OC(C)CN2CCOCC2)ccc1NC(=O)[C@@H]1N[C@@H](CC(C)(C)C)[C@](C#N)(c2ccc(Cl)cc2F)[C@H]1c1cccc(Cl)c1F` (stereo partly drawn) [Example 21, 4-{[(2R,3S,4R,5S)-4-(4-Chloro-2-fluoro-phenyl)-3-(3-chloro-2-fluoro-phenyl)-4-cyano-5-(2,2-dimethyl-propyl)-pyrrolidine-2-carbonyl]-amino}-3-methoxy-benzoic acid 1-methyl-2-morpholin-4-yl-ethyl ester] yielded an IC50 of 0.0137 µM. Compound `COc1cc(C(=O)OCCN2CCOCC2)ccc1NC(=O)[C@@H]1N[C@@H](CC(C)(C)C)[C@](C#N)(c2ccc(Cl)cc2F)[C@H]1c1cccc(Cl)c1F` [Example 22, 4-{[(2R,3S,4R,5S)-4-(4-Chloro-2-fluoro-phenyl)-3-(3-chloro-2-fluoro-phenyl)-4-cyano-5-(2,2-dimethyl-propyl)-pyrrolidine-2-carbonyl]-amino}-3-methoxy-benzoic acid 2-morpholin-4-yl-ethyl ester] has an IC50 of 0.015 µM. With `CCN(CC)CCNC(=O)c1ccc(NC(=O)[C@@H]2N[C@@H](CC(C)(C)C)[C@](C#N)(c3ccc(Cl)cc3F)[C@H]2c2cccc(Cl)c2F)c(OC)c1` [Example 23, (2R,3S,4R,5S)-4-(4-Chloro-2-fluoro-phenyl)-3-(3-chloro-2-fluoro-phenyl)-4-cyano-5-(2,2-dimethyl-propyl)-pyrrolidine-2-carboxylic acid [4-(2-diethylamino-ethylcarbamoyl)-2-methoxy-phenyl]-amide, hydrochloride] the IC50 was 0.00934 µM.

Same assay, conditions: read-out: IC50 (uM, 0.02% BSA); HTRF, 0.02% BSA, 37° C. 1 h
In the case of “4-{[(2R,3S,4R,5S)-4-(4-Chloro-2-fluoro-phenyl)-3-(3-chloro-2-fluoro-phenyl)-4-cyano-5-(2,2-dimethyl-propyl)-pyrrolidine-2-carbonyl]-amino}-3-methoxy-benzoic acid, dodecaethylene glycol ester [Example 43]”, the IC50 is reported as 0.0062 µM. With “4-{[(2R,3S,4R,5S)-4-(4-Chloro-2-fluoro-phenyl)-3-(3-chloro-2-fluoro-phenyl)-4-cyano-5-(2,2-dimethyl-propyl)-pyrrolidine-2-carbonyl]-amino}-3-methoxy-benzoic acid, polyethylene glycol-200 ester, trifluoroacetate salt [Example 45]” the IC50 was 0.0105 µM. Compound “4-{[(2R,3S,4R,5S)-4-(4-Chloro-2-fluoro-phenyl)-3-(3-chloro-2-fluoro-phenyl)-4-cyano-5-(2,2-dimethyl-propyl)-pyrrolidine-2-carbonyl]-amino}-3-methoxy-benzoic acid, polyethylene glycol-600 ester, trifluoroacetate salt [Example 44]” has an IC50 of 0.0113 µM.
